Results published in publication PMC11783601, “Analogue-Sensitive Inhibition of Histone Demethylases Uncovers Member-Specific Function in Ribosomal Protein Synthesis” (Journal of the American Chemical Society, 2025).

What was measured:
TET2 = experiment: MALDI-based assay for TET2 on 5-mC DNA substrate; format: biochemical, human; settings: MALDI-TOF, 5mC oligonucleotide
Description: Aliquots were kept on ice for 10 minutes before addition of 200
µM 2OG or equivalent volume of water. After 30-60 minutes incubation at 37 °C, 1 µL sample and
(§1) 1 µL S-DHB matrix were spotted on a MALDI plate and monitored with Bruker FlexControl in
the reflectron positive mode and analyzed on Bruker FlexAnalysis software. Relative inhibition
was monitored via assessing percent product decrease with L-Leu NOG samples compared to no
temperature for 10 minutes.

PHD2 (EGLN1) = target: T1, PHD2 (EGLN1) (Homo sapiens, UniProt Q9GZT9); experiment: MALDI-based assay EGLN1 prolyl hydroxylation of peptide; format: biochemical; settings: MALDI-TOF, peptide substrate
T1 construct: Full length EGLN1 construct plasmid with; TEV-His (N); host or cells: E. coli BL21 (DE3)
Description: demethylation events on the peptide. The percent peak area was calculated, and the K27me2, me1,
and me0 peaks were summed to get the relative percent demethylated peptide.
MALDI-based assay for FTO and ALKBH5: To determine the enzymatic activity of FTO and
ALKBH5 recombinant proteins in the presence of L-Leu NOG 6, a previously published methods
were utilized.15, 18 Briefly,10 µM of each protein was incubated in the presence of 10 µM RNA
7.5, 150 mM KCl, 50 µM L-Leu NOG or equivalent volume of water in 10 µL aliquots. The
samples were placed on ice for 10 minutes followed by addition of 200 µM 2OG or equivalent
volume of water. After incubation at 37 °C for 30 minutes, samples were desalted with 3 µL of BT
spotted on a MALDI plate with 1uL sample and 1uL of 3-HPA matrix and monitored with Bruker
FlexControl in the reflectron negative mode and analyzed on Bruker FlexAnalysis software.
Relative inhibition was monitored via assessing percent product decrease with L-Leu NOG
MALDI-based assay for C14orf169 (NO66) and MINA: To monitor the enzymatic activity of […]
as §1
the reflectron positive mode and analyzed on Bruker FlexAnalysis software. […]
was monitored via assessing percent product decrease with L-Leu NOG samples compared to no […]
monitored following a reported method.19 To monitor the enzymatic activity of EGLN1 and 3 […]

[1] = target: T2, full-length wild type KDM4A (Homo sapiens, UniProt O75164); experiment: H3K9me3 Western blot of nuclear extracts of transfected HEK293T cells; format: cell-based; settings: 10 μM n-octyl IOX1, Western blot
T2 construct: Expression of full-length KDM4A-E and their mutants in HEK293T cells; host or cells: HEK293T
Description: To test the orthogonality of NOL toward wild type KDM4A, HEK293T cells, either nontransfected or transfected with KDM4A, were individually treated with DMSO, 400 μM 6A or 10 μM n-octyl IOX1, a nonspecific inhibitor of 2OG enzymes. […] To further probe for off-target effects of 6 on endogenous 2OG enzymes, HEK293T cells were cultured with DMSO or 400 μM 6A and examined for several postsynthetic modifications catalyzed by these dioxygenases. Key trimethylated lysine marks on extracted histone were analyzed by Western blot using corresponding antibodies (Figure S31). […] Similarly, no change in prolyl hydroxylation was detected when cellular extracts were subjected to the pan hydroxyproline antibody.
KDM4A mammalian expression plasmid in CMV vector was purchased from Addgene (plasmid #24180). KDM4B mammalian expression plasmid in CMV vector was purchased from Addgene (plasmid #24181). KDM4C mammalian expression plasmid in CMV vector was purchased from Addgene (plasmid #24214). KDM4D mammalian expression plasmid in pReciever vector was purchased from Genecopoia (EX-Z0917-M06.) KDME mammalian expression plasmid in pRP-EXP was designed from Vector Builder. […]
20. Quantification of fixed-cell imaging data
TIF images obtained from confocal microscopy experiments were quantified in ImageJ. […]

T2 sequence (O75164 whole entry): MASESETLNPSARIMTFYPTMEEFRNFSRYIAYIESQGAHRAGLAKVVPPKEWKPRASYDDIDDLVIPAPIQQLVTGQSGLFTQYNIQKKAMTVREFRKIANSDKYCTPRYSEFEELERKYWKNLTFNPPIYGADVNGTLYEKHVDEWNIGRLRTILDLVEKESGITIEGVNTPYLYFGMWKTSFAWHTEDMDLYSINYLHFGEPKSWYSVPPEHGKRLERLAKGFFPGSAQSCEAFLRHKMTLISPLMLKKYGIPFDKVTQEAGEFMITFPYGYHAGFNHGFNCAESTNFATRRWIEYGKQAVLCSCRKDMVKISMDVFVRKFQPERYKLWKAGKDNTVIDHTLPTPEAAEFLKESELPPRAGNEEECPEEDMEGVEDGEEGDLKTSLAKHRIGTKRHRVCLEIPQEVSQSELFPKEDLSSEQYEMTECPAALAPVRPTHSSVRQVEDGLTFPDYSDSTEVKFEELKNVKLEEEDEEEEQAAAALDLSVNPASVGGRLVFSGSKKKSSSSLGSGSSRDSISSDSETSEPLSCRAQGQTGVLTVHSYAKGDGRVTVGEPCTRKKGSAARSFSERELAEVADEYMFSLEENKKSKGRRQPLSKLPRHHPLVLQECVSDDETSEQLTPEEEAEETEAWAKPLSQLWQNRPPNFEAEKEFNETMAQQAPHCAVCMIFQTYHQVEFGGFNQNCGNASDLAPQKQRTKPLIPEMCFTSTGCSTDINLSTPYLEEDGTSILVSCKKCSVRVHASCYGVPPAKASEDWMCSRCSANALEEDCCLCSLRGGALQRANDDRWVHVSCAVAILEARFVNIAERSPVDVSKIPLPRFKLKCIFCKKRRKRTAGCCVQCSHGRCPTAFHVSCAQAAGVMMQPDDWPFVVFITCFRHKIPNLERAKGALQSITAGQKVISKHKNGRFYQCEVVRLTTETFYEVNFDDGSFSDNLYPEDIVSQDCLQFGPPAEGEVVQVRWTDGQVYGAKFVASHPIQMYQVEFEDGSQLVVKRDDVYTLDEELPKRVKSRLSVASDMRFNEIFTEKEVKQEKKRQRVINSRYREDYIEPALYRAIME
T1 sequence (Q9GZT9 whole entry): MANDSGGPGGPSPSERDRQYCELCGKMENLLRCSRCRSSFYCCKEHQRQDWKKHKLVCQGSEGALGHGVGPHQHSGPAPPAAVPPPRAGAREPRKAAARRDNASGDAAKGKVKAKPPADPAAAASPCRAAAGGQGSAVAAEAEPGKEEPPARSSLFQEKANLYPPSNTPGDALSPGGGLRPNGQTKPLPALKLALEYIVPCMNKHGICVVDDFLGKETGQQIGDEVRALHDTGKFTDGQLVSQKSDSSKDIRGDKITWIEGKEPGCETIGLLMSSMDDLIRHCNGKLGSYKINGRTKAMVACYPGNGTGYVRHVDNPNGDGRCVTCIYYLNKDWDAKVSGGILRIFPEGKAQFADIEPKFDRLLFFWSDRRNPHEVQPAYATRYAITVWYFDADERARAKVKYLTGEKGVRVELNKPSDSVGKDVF

| SMILES | inhibition of TET2 (TET2) | inhibition of PHD2 (PHD2 (EGLN1)) | inhibition of wild type KDM4A H3K9me3 demethylation [1] | inhibition of wild type KDM4A H3K9me3 demethylation ([1]; listed as IOX1) |
| --- | --- | --- | --- | --- |
| CC(C)CC(NC(=O)C(=O)O)C(=O)O (stereo not shown) [compound 6, N-oxalyl leucine] | No inhibition | No inhibition |  |  |
| CCCCCCCCOC(=O)c1ccc(O)c2ncccc12 [n-octyl IOX1] |  |  | Inhibition | strongly inhibited |
